Blank lines part the entries; values can stand above or below the compound they belong to.
Assays:
Assay type in all cases: physicochemical
[1] = Hygroscopicity test (dynamic vapor sorption, DVS), with XRPD before and after; settings: for moisture uptake (DVS): 25° C./80% RH
Method: (§1) DVS profiles were acquired on SMS (Surface Measurement Systems) DVS Intrinsic and DVS Intrinsic plus. The relative humidity at 25° C. was calibrated using the deliquescence points of LiCl, Mg(NO3)2, and KCl.

[2] = Solid stability evaluation (XRPD and HPLC) of samples left to stand open; settings: for HPLC peak 6, RRT 1.00 (main peak): in %
Method: The crystal form A was left to stand open at 60° C. for 24 hours, and at 25° C./60% RH and 40° C./75% RH for 1 week. The physical and chemical stability of the samples was detected by XRPD and HPLC. The stability evaluation results are summarized in Table 4, the XRPD results are shown in FIG. 12, and the HPLC results are shown in Table 5 and FIG. 13.

[3] = Crystal form stability on drying or heating (XRPD)
Method: 40.05 g of the crude compound of formula (I) was weighed and mixed with ethanol of 5 folds by mass, and the mixture was stirred at 25° C. for 30 minutes. At this point, a visible solid precipitate was observed. The mixture was stirred for another 2-3 hours, followed by filtration. The wet cake was washed with 80 mL of ethanol. Three solvate crystal forms, C1, C2, and C3, with different structures were detected in the undried wet product of the compound of formula (I) formed in ethanol. Their XRPD results are shown in FIGS. 9A-9C, Table 2-1, Table 2-2, and Table 2-3.
Furthermore, the sample had 3 endothermic peaks at 85.6° C., 130.7° C., and 144.3° C. (peak temperatures). […] To further investigate the substantial TGA weight loss of the crystal form B sample, a heating experiment was performed on it. […] Due to the crystal form conversion upon sample heating, combined with the substantial TGA weight loss and the solvent residue indicated by the nuclear magnetic resonance results after heating, it can be inferred that crystal form B is a toluene solvate.
as §1

[4] = open, 60° C. 24 hours, 25° C./60% RH and 40° C./75% RH 1 week

moisture uptake (DVS) [1]: 5.941%
SMILES: CO[C@H]1/C=C/O[C@@]2(C)Oc3c(C)c(O)c4c(c3C2=O)C2=NC3(CCN(CCn5c([N+](=O)[O-])cnc5C)CC3)NC2=C(NC(=O)/C(C)=C\C=C\[C@H](C)[C@H](O)[C@@H](C)[C@@H](O)[C@@H](C)[C@H](OC(C)=O)[C@@H]1C)C4=O [amorphous form]

moisture uptake (DVS) [1]: 2.880% | crystal form conversion, XRPD before and after the DVS test ([1]; before and after DVS test): no crystal form conversion | stability of the crystal form ([1]; judged from XRPD before and after DVS test): good stability | HPLC impurity peak 1, RRT 0.81 ([2]; 25° C./60% RH/Open/1 week): 0.18 | HPLC impurity peak 2, RRT 0.83 ([2]; 25° C./60% RH/Open/1 week): 0.06 | HPLC impurity peak 3, RRT 0.87 ([2]; 25° C./60% RH/Open/1 week): 0.05 | HPLC impurity peak 4, RRT 0.91 ([2]; 25° C./60% RH/Open/1 week): 0.06 | HPLC impurity peak 5, RRT 0.97 ([2]; 25° C./60% RH/Open/1 week): 0.19 | HPLC peak 6, RRT 1.00 (main peak) ([2]; 25° C./60% RH/Open/1 week): 99.45 | Change in crystal form ([2]; 25° C./60° C. RH, 1 week, open): No | HPLC purity ([2]; 25° C./60° C. RH, 1 week, open): 99.45 area % | Change in crystal form ([2]; 40° C./75% RH, 1 week, open): No | HPLC purity ([2]; 40° C./75% RH, 1 week, open): 99.29 area % | HPLC impurity peak 1, RRT 0.81 ([2]; 40° C./75% RH/Open/1 week): 0.38 | HPLC impurity peak 2, RRT 0.83 ([2]; 40° C./75% RH/Open/1 week): 0.06 | HPLC impurity peak 3, RRT 0.87 ([2]; 40° C./75% RH/Open/1 week): 0.05 | HPLC impurity peak 4, RRT 0.91 ([2]; 40° C./75% RH/Open/1 week): 0.06 | HPLC impurity peak 5, RRT 0.97 ([2]; 40° C./75% RH/Open/1 week): 0.16 | HPLC peak 6, RRT 1.00 (main peak) ([2]; 40° C./75% RH/Open/1 week): 99.29 | Change in crystal form ([2]; 60° C., 24 hours, open): No | HPLC purity ([2]; 60° C., 24 hours, open): 99.33 area % | HPLC impurity peak 1, RRT 0.81 ([2]; 60° C./open/24 hours): 0.30 | HPLC impurity peak 2, RRT 0.83 ([2]; 60° C./open/24 hours): 0.07 | HPLC impurity peak 3, RRT 0.87 ([2]; 60° C./open/24 hours): 0.06 | HPLC impurity peak 4, RRT 0.91 ([2]; 60° C./open/24 hours): 0.07 | HPLC impurity peak 5, RRT 0.97 ([2]; 60° C./open/24 hours): 0.17 | HPLC peak 6, RRT 1.00 (main peak) ([2]; 60° C./open/24 hours): 99.33 | HPLC impurity peak 1, RRT 0.81 ([2]; Starting sample): 0.29 | HPLC impurity peak 2, RRT 0.83 ([2]; Starting sample): 0.07 | HPLC impurity peak 3, RRT 0.87 ([2]; Starting sample): 0.08 | HPLC impurity peak 4, RRT 0.91 ([2]; Starting sample): 0.07 | HPLC impurity peak 5, RRT 0.97 ([2]; Starting sample): 0.17 | HPLC purity ([2]; Starting sample): 99.32 area % | HPLC peak 6, RRT 1.00 (main peak) ([2]; Starting sample): 99.32 | change in purity (HPLC) [2, 4]: no significant change in purity | crystal form conversion (XRPD) [2, 4]: no crystal form conversion
SMILES: CO[C@H]1/C=C/O[C@@]2(C)Oc3c(C)c(O)c4c(c3C2=O)C2=NC3(CCN(CCn5c([N+](=O)[O-])cnc5C)CC3)NC2=C(NC(=O)/C(C)=C\C=C\[C@H](C)[C@H](O)[C@@H](C)[C@@H](O)[C@@H](C)[C@H](OC(C)=O)[C@@H]1C)C4=O [crystal form A]

crystal form stability ([3]; after heating or drying, all converted to crystal form A): poor crystal form stability | crystal form after air-drying (XRPD) ([3]; air-drying at room temperature for 24 hours): remained unchanged | crystal form after heating (XRPD) ([3]; heating to 115° C. and cooling to room temperature): remained unchanged | crystal form after heating (XRPD) ([3]; heating to 140° C. and cooling to room temperature): converted to crystal form A
SMILES: CO[C@H]1/C=C/O[C@@]2(C)Oc3c(C)c(O)c4c(c3C2=O)C2=NC3(CCN(CCn5c([N+](=O)[O-])cnc5C)CC3)NC2=C(NC(=O)/C(C)=C\C=C\[C@H](C)[C@H](O)[C@@H](C)[C@@H](O)[C@@H](C)[C@H](OC(C)=O)[C@@H]1C)C4=O [crystal form B]

crystal form after drying (XRPD) ([3]; wet product from ethanol, after drying): converted to crystal form A
SMILES: CO[C@H]1/C=C/O[C@@]2(C)Oc3c(C)c(O)c4c(c3C2=O)C2=NC3(CCN(CCn5c([N+](=O)[O-])cnc5C)CC3)NC2=C(NC(=O)/C(C)=C\C=C\[C@H](C)[C@H](O)[C@@H](C)[C@@H](O)[C@@H](C)[C@H](OC(C)=O)[C@@H]1C)C4=O [crystal form C1]

— patent US12723050B2, “Crystal form of compound and use thereof” (TENNOR THERAPEUTICS (SUZHOU) LIMITED, priority 2023, dated 2026)
